{
  "source": "patent US7456183B2",
  "about": "“Guanidino compounds” (Novartis Vaccines and Diagnostics, Inc., priority 2001, dated 2008)",
  "biological_target": "MC4-R (Homo sapiens, UniProt P32245)",
  "sequence (P32245 whole entry, species assumed)": "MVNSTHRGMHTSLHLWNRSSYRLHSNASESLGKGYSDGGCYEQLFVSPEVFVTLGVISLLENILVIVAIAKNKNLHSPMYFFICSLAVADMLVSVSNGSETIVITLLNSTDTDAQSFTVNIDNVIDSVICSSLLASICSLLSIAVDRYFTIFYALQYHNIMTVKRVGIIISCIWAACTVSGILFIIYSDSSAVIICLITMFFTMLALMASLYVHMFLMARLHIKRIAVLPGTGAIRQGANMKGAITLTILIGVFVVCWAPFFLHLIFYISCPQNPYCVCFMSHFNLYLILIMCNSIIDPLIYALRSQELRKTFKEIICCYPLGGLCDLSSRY",
  "assay": "cAMP Scintillation Proximity Assay in cells expressing MC4-R",
  "type": "cell-based",
  "conditions": "intercellular cAMP measured with SPA kit, read-out: in vitro potency (as measured by EC50 value)",
  "description": "EC50 values of test compounds were determined by treating cells expressing MC4-R with test compound and lysing the cells and measuring intercellular cAMP concentration with an Amersham-Pharmacia RPA-559 cAMP Scintillation Proximity Assay (SPA) kit. The following compounds were synthesized and tested according to this assay. The following compounds are merely illustrative and should not be construed as limiting of the instant invention.",
  "note": "pEC50: −log10 of the molar value.",
  "data": [
    {"smiles": "C[C@@H]1[C@@H](N=C(Nc2ccc3c(c2)CCN(CCc2ccc(Cl)cc2Cl)C3=O)N2CCN[C@@H](C)C2)C[C@H]2C[C@@H]1C2(C)C", "note": "[Example 22, (3S)—N-{2-[2-(2,4-dichlorophenyl)ethyl]-1-oxo-1,2,3,4-tetrahydroisoquinolin-6-yl}-3-methyl-N′-[(1S,2S,5R)-2,6,6-trimethylbicyclo[3.1.1]hept-3-yl]piperazine-1-carboximidamide]", "values": [
      {"measurement": "pEC50", "value": "> 5.52"}
    ]}
  ]
}
